Measured values from patent US20080312080A1 (priority 2006, published 2008).

tested on: Aspergillus parasiticus NRRL 2999; format: cell-based

| Substance | aflatoxin production inhibition activity (in words) |
| --- | --- |
| (S)-3-aminooctanoyl-(S)-3-aminooctanoyl-glycine [Example 4] | extremely excellent aflatoxin production inhibition activity |
| (S)-3-aminooctanoyl-(S)-3-aminooctanoyl-L-alanine [Example 6] | extremely excellent aflatoxin production inhibition activity |
| (S)-3-aminooctanoyl-(S)-3-aminooctanoyl-L-proline [Example 8] | extremely excellent aflatoxin production inhibition activity |
